From the supplement of paper PMC10883282

Legend:
Assay in all cases: relative viability vs DMSO control (72 h) (fraction); higher = more viable cells
[1] = test system: KHOS-NP
Outline: (§1)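 Relative viability was measured with ATPLite and expressed as percent growth, averaged across up to triplicate wells. Sarcoma cell lines had been seeded in 384-well plates to reach 80–90% confluence, dosed after 24 h, and incubated 72 h at 37 °C, 5% CO2. All data were rescaled on a scale where 1 is full and 0 is none.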

[2] = test system: HT1080
Outline: as §1

[3] = test system: RD-ES
Outline: as §1

[4] = test system: RD
Outline: as §1

[5] = test system: VA-ES-BJ
Outline: as §1

Cn1ncnc1[C@H]1c2n[nH]c(=O)c3cc(F)cc(c23)N[C@@H]1c1ccc(F)cc1 [Talazoparib]
relative viability
Details | [1] | [2] | [3] | [4] | [5]
0.00017 µM | 1.02 | 1.06 | 0.976 | 0.904 | 1.01
0.00051 µM | 1.04 | 1.05 | 0.95 | 0.945 | 1.01
0.00152 µM | 1.03 | 1.05 | 0.904 | 0.923 | 1.01
0.00457 µM | 1.04 | 1.037 | 0.844 | 0.869 | 0.955
0.01372 µM | 1.02 | 1 | 0.609 | 0.842 | 0.926
0.04115 µM | 1.01 | 0.955 | 0.191 | 0.789 | 0.849
0.1235 µM | 1 | 0.8497 | 0.0431 | 0.72 | 0.738
0.3704 µM | 0.968 | 0.797 | 0.0199 | 0.718 | 0.601
1.111 µM | 0.837 | 0.662 | 0.0127 | 0.629 | 0.406
3.333 µM | 0.675 | 0.577 | 0.00913 | 0.586 | 0.225
10 µM | 0.607 | 0.554 | 0.0143 | 0.577 | 0.163

O=c1sn(-c2cccc3ccccc23)c(=O)n1Cc1ccccc1 [Tideglusib]
relative viability
Details | [1] | [2] | [3] | [4] | [5]
0.00017 µM | 1.11 | 1.06 | 1.01 | 1.08 | 1.1
0.00051 µM | 1.112 | 1.08 | 1.03 | 1.12 | 1.12
0.00152 µM | 1.1 | 1.07 | 1.02 | 1.13 | 1.08
0.00457 µM | 1.114 | 1.1 | 1.02 | 1.12 | 1.1
0.01372 µM | 1.12 | 1.069 | 1.02 | 1.14 | 1.08
0.04115 µM | 1.113 | 1.07 | 1.01 | 1.13 | 1.08
0.1235 µM | 1.108 | 1.06 | 1.03 | 1.11 | 1.08
0.3704 µM | 1.1 | 1.09 | 1.01 | 1.1 | 1.04
1.111 µM | 1.075 | 1.07 | 1.01 | 1.1 | 1.07
3.333 µM | 1.08 | 1.097 | 1 | 1.12 | 1.04
10 µM | 1.07 | 1.02 | 0.992 | 1.12 | 1.02

O=C1NC(=O)[C@@H](c2cn3c4c(cccc24)CCC3)[C@@H]1c1c[nH]c2ccccc12 [Tivantinib]
relative viability
Details | [1] | [2] | [3] | [4] | [5]
0.00017 µM | 1.036 | 1.047 | 0.948 | 1.05 | 1.01
0.00051 µM | 1.04 | 1.02 | 0.967 | 1.09 | 1.03
0.00152 µM | 1.036 | 1.03 | 0.986 | 1.09 | 1.02
0.00457 µM | 1.03 | 1.04 | 1 | 1.1 | 1.03
0.01372 µM | 1.04 | 1.01 | 1 | 1.12 | 1.01
0.04115 µM | 1.04 | 1.04 | 1.01 | 1.04 | 1.01
0.1235 µM | 1.04 | 1.03 | 0.977 | 1.04 | 0.991
0.3704 µM | 1.05 | 1.02 | 0.94 | 0.81 | 0.76
1.111 µM | 0.541 | 0.287 | 0.129 | 0.371 | 0.464
3.333 µM | 0.487 | 0.128 | 0.071 | 0.219 | 0.439
10 µM | 0.374 | 0.0702 | 0.0364 | 0.267 | 0.397

Cc1[nH]c(/C=C2\C(=O)Nc3ccc(F)cc32)c(C)c1C(=O)NCCN1CCCC1 [Toceranib]
relative viability
Details | [1] | [2] | [3] | [4] | [5]
68 pM | 1.09 | 1.09 | 0.976 | 1.06 | 1.07
0.000203 µM | 1.106 | 1.06 | 0.948 | 1.09 | 1.05
0.0006 µM | 1.0967 | 1.116 | 0.964 | 1.14 | 1.04
0.0018 µM | 1.08 | 1.07 | 0.943 | 1.07 | 1.03
0.0055 µM | 1.07 | 1.076 | 0.9493 | 1.08 | 1.04
0.0165 µM | 1.07 | 1.04 | 0.937 | 1.08 | 1.01
0.0494 µM | 1.03 | 1.09 | 0.924 | 1.11 | 0.987
0.1481 µM | 1.02 | 1 | 0.902 | 1.08 | 1
0.444 µM | 1.02 | 1.1 | 0.821 | 1.08 | 0.961
1.333 µM | 1 | 1.14 | 0.615 | 1.05 | 0.859
4 µM | 0.775 | 0.868 | 0.176 | 0.786 | 0.675

CC(C)Oc1ccc(-c2nn([C@@H](C)c3oc4ccc(F)cc4c(=O)c3-c3cccc(F)c3)c3ncnc(N)c23)cc1F [Umbralisib]
relative viability
Details | [1] | [2] | [3] | [4] | [5]
0.00017 µM | 1.091 | 1.07 | 1 | 1.1 | 1.07
0.00051 µM | 1.085 | 1.09 | 1 | 1.08 | 1.07
0.00152 µM | 1.095 | 1.07 | 1.01 | 1.11 | 1.11
0.00457 µM | 1.1 | 1.09 | 1.001 | 1.1 | 1.08
0.01372 µM | 1.1 | 1.06 | 0.979 | 1.113 | 1.08
0.04115 µM | 1.09 | 1.069 | 1 | 1.11 | 1.05
0.1235 µM | 1.11 | 1.08 | 1.02 | 1.12 | 1.07
0.3704 µM | 1.08 | 1.07 | 1 | 1.08 | 1.05
1.111 µM | 1.1 | 1.05 | 0.994 | 1.14 | 1.05
3.333 µM | 1.1 | 1.05 | 1.01 | 1.11 | 1.05
10 µM | 1.077 | 0.955 | 1.02 | 1.11 | 1.1

CC[C@@H]1CN(C(=O)NCC(F)(F)F)C[C@@H]1c1cnc2cnc3[nH]ccc3n12 [Upadacitinib]
relative viability
Details | [1] | [2] | [3] | [4] | [5]
0.00017 µM | 1.07 | 1.06 | 0.981 | 1.07 | 1.1
0.00051 µM | 1.09 | 1.06 | 0.979 | 1.08 | 1.05
0.00152 µM | 1.07 | 1.08 | 1 | 1.13 | 1.07
0.00457 µM | 1.08 | 1.05 | 0.979 | 1.13 | 1.04
0.01372 µM | 1.08 | 1.07 | 1 | 1.14 | 1.05
0.04115 µM | 1.088 | 1.06 | 0.99 | 1.14 | 1.06
0.1235 µM | 1.07 | 1.05 | 0.97 | 1.08 | 1.04
0.3704 µM | 1.06 | 1.062 | 0.974 | 1.14 | 1.037
1.111 µM | 1.03 | 1.035 | 0.964 | 1.14 | 1
3.333 µM | 0.965 | 1.01 | 0.996 | 1.07 | 1.03
10 µM | 0.912 | 0.9733 | 0.989 | 1 | 0.995

Clc1ccc(Nc2nnc(Cc3ccncc3)c3ccccc23)cc1 [Vatalanib]
relative viability
Details | [1] | [2] | [3] | [4] | [5]
0.00017 µM | 1.041 | 1.01 | 0.987 | 1.09 | 1.01
0.00051 µM | 1.054 | 0.995 | 0.954 | 1.1 | 1.01
0.00152 µM | 1.04 | 0.989 | 0.975 | 1.1 | 1
0.00457 µM | 1.06 | 1.01 | 0.983 | 1.095 | 1.04
0.01372 µM | 1.03 | 0.993 | 0.967 | 1.093 | 1.02
0.04115 µM | 1.05 | 0.9838 | 0.959 | 1.08 | 1.02
0.1235 µM | 1.058 | 0.986 | 0.965 | 1.09 | 1.03
0.3704 µM | 1.062 | 1 | 0.956 | 1.12 | 1.05
1.111 µM | 1.07 | 1.021 | 0.989 | 1.12 | 1.02
3.333 µM | 1.07 | 1.02 | 0.98 | 1.11 | 1.07
10 µM | 1.08 | 1.07 | 0.947 | 1.03 | 1.05
